# From ChEMBL document CHEMBL5724914, “Linking interpersonal differences in gut microbiota composition and drug biotransformation activity” (2024)
# Experiments:
# [1] = (§1) The drug is tested on Z-028 corresponding to mouse gut metagenome with ENA study accession number: PRJEB37062 and ENA sample accession number: ERS12561827 for biotransformation under anaerobic condition. The drug concentrations were measured over 9 timepoints collected between 0 and 24 hours of incubation by liquid-chromatography-coupled mass spectrometry (LC–MS); settings: 2 µM
# [2] = as §1, with “Z-026” for “Z-028”, “to” for “to mouse gut”, “ERS12561825” for “ERS12561827”; settings: 2 µM
# [3] = as §1, with “Z-023” for “Z-028”, “to” for “to mouse gut”, “ERS12561822” for “ERS12561827”; settings: 2 µM
# [4] = as §1, with “Z-022” for “Z-028”, “ERS12561821” for “ERS12561827”; settings: 2 µM
# [5] = as §1, with “Z-021” for “Z-028”, “to” for “to mouse gut”, “ERS12561820” for “ERS12561827”; settings: 2 µM
# [6] = as §1, with “Z-016” for “Z-028”, “ERS12561815” for “ERS12561827”; settings: 2 µM
# [7] = as §1, with “Z-013” for “Z-028”, “rabbit” for “mouse”, “ERS12561813” for “ERS12561827”; settings: 2 µM
# [8] = as §1, with “Z-007” for “Z-028”, “rat” for “mouse”, “ERS12561807” for “ERS12561827”; settings: 2 µM
# [9] = as §1, with “Z-001” for “Z-028”, “ERS12561801” for “ERS12561827”; settings: 2 µM
# [10] = as §1, with “WLS-098” for “Z-028”, “human” for “mouse”, “ERS12561754” for “ERS12561827”; settings: 2 µM
# [11] = as §1, with “WLS-007” for “Z-028”, “human” for “mouse”, “ERS12561742” for “ERS12561827”; settings: 2 µM
# [12] = human gut metagenome, 24 h, 2 µM
# [13] = human gut metagenome, 24 h, 2 µM; remark: listed apart in the source
# [14] = human gut metagenome, 24 h, 2 µM; remark: listed apart in the source
# [15] = human gut metagenome, 24 h, 2 µM; remark: listed apart in the source
# [16] = human gut metagenome, 24 h, 2 µM; remark: listed apart in the source
# [17] = human gut metagenome, 24 h, 2 µM; remark: listed apart in the source
# [18] = human gut metagenome, 24 h, 2 µM; remark: listed apart in the source
# [19] = human gut metagenome, 24 h, 2 µM; remark: listed apart in the source
# [20] = human gut metagenome, 24 h, 2 µM; remark: listed apart in the source
# Further: call rule not given here.
Compound,Bacterial Biotransformation [1],Bacterial Biotransformation [2],Bacterial Biotransformation [3],Bacterial Biotransformation [4],Bacterial Biotransformation [5],Bacterial Biotransformation [6],Bacterial Biotransformation [7],Bacterial Biotransformation [8],Bacterial Biotransformation [9],Bacterial Biotransformation [10],Bacterial Biotransformation [11],Bacterial Biotransformation [12],Bacterial Biotransformation [13],Bacterial Biotransformation [14],Bacterial Biotransformation [15],Bacterial Biotransformation [16],Bacterial Biotransformation [17],Bacterial Biotransformation [18],Bacterial Biotransformation [19],Bacterial Biotransformation [20]
CC(C)(C(=O)O)c1ccc(C(O)CCCN2CCC(C(O)(c3ccccc3)c3ccccc3)CC2)cc1 (stereo not given) [FEXOFENADINE],Compound NOT metabolized,Compound NOT metabolized,Compound metabolized,Compound NOT metabolized,Compound NOT metabolized,Compound NOT metabolized,Compound NOT metabolized,Compound NOT metabolized,Compound NOT metabolized,Compound NOT metabolized,Compound NOT metabolized,Compound NOT metabolized,Compound NOT metabolized,Compound NOT metabolized,Compound NOT metabolized,Compound NOT metabolized,Compound NOT metabolized,Compound NOT metabolized,Compound NOT metabolized,Compound NOT metabolized
OCCN1CCN(CCCN2c3ccccc3Sc3ccc(C(F)(F)F)cc32)CC1 [FLUPHENAZINE],Compound metabolized,Compound NOT metabolized,Compound metabolized,Compound metabolized,Compound metabolized,Compound NOT metabolized,Compound NOT metabolized,Compound NOT metabolized,Compound metabolized,Compound NOT metabolized,Compound NOT metabolized,Compound metabolized,Compound metabolized,Compound metabolized,Compound metabolized,Compound metabolized,Compound metabolized,Compound metabolized,Compound metabolized,Compound metabolized
COc1ccc2c3c1O[C@H]1C[C@@H](O)C=C[C@@]31CCN(C)C2 [GALANTAMINE],Compound NOT metabolized,Compound NOT metabolized,Compound NOT metabolized,Compound NOT metabolized,Compound NOT metabolized,Compound NOT metabolized,Compound NOT metabolized,Compound NOT metabolized,Compound NOT metabolized,Compound metabolized,Compound NOT metabolized,Compound NOT metabolized,Compound NOT metabolized,Compound NOT metabolized,Compound NOT metabolized,Compound NOT metabolized,Compound NOT metabolized,Compound NOT metabolized,Compound metabolized,Compound metabolized
Cc1ccc(S(=O)(=O)NC(=O)NN2CC3CCCC3C2)cc1 (stereo not given) [GLICLAZIDE],Compound metabolized,Compound metabolized,Compound metabolized,Compound metabolized,Compound NOT metabolized,Compound metabolized,Compound NOT metabolized,Compound NOT metabolized,Compound metabolized,Compound metabolized,Compound NOT metabolized,Compound metabolized,Compound metabolized,Compound metabolized,Compound metabolized,Compound metabolized,Compound metabolized,Compound metabolized,Compound metabolized,Compound metabolized
COC1=CC(=O)C[C@@H](C)[C@]12Oc1c(Cl)c(OC)cc(OC)c1C2=O [GRISEOFULVIN],Compound metabolized,Compound metabolized,Compound metabolized,Compound metabolized,Compound metabolized,Compound metabolized,Compound metabolized,Compound metabolized,Compound metabolized,Compound NOT metabolized,Compound metabolized,Compound metabolized,Compound NOT metabolized,Compound NOT metabolized,Compound metabolized,Compound NOT metabolized,Compound metabolized,Compound metabolized,Compound NOT metabolized,Compound NOT metabolized
N#Cc1ccc(C(c2ccc(C#N)cc2)n2cncn2)cc1 [LETROZOLE],Compound NOT metabolized,Compound metabolized,Compound metabolized,Compound metabolized,Compound metabolized,Compound NOT metabolized,Compound NOT metabolized,Compound NOT metabolized,Compound NOT metabolized,Compound NOT metabolized,Compound NOT metabolized,Compound NOT metabolized,Compound NOT metabolized,Compound NOT metabolized,Compound NOT metabolized,Compound NOT metabolized,Compound NOT metabolized,Compound NOT metabolized,Compound NOT metabolized,Compound NOT metabolized
CC(Oc1c(Cl)cccc1Cl)C1=NCCN1 (stereo not given) [LOFEXIDINE],Compound NOT metabolized,Compound NOT metabolized,Compound NOT metabolized,Compound NOT metabolized,Compound NOT metabolized,Compound NOT metabolized,Compound NOT metabolized,Compound NOT metabolized,Compound NOT metabolized,Compound metabolized,Compound metabolized,Compound NOT metabolized,Compound NOT metabolized,Compound NOT metabolized,Compound NOT metabolized,Compound NOT metabolized,Compound NOT metabolized,Compound NOT metabolized,Compound NOT metabolized,Compound metabolized
